row,Compound,melting point
1,O=C(O)c1ccc(-n2cc3ccccc3n2)cc1,286 to 288 °C
2,Clc1ccc(N2CCN(Cc3c[nH]c4ncccc34)CC2)cc1,226 to 227 °C
3,C=COCCOc1ccc(C=CC(=O)C=Cc2ccc(OCCOC=C)cc2)cc1,124 to 125 °C
4,CC12CCC3C(CCC4CC(O)CCC43C)C1CCC2C#CBr (stereo not drawn),165 to 167 °C
5,COc1cc(OC)c2c(=O)[nH]c(-c3ccc(OCC[N+]4([O-])CCCC4)c(-c4ccc(S(C)(=O)=O)cc4)n3)nc2c1,167 to 170 °C
6,CCCNc1ncnc2c1ncn2Cc1ccc(OC)c(OC)c1,117 to 120 °C
7,O=C(O)CN1C(=O)C(=Cc2ccc(OCc3ccc(F)cc3F)c(OCc3ccc(F)cc3F)c2)SC1=S,251 to 254 °C
8,COc1ccc(CS(=O)(=O)CC(=O)O)cc1[N+](=O)[O-],96 to 98 °C
9,Cc1sc(S(N)(=O)=O)cc1NC(=O)c1cnn2c(C(F)F)cc(-c3ccc(C(F)(F)F)cc3)nc12,313 °C
10,CSc1nnc(SCC2=C(C(=O)O)N3C(=O)C(NC(=O)Cc4csc(=O)s4)C3SC2)s1 (stereo not drawn),160 °C
11,c1cc(-c2nccs2)cc(-n2cnc3cc(-c4ccoc4)ccc32)c1,102 to 105 °C
12,CCCCc1ccc(CCCCSCc2cccc(/C=C/c3cccc(NC(=O)CC(CC)(CC)C(=O)O)c3)n2)cc1,150 to 151 °C
13,CC(C)(C)c1nc(C(=O)c2cc[nH]n2)nc(C(C)(C)C)c1O,156 to 161 °C
14,CC(=O)N[C@H]1CC[C@H](CCN2CCN(c3ncc(C)c4c3CCO4)CC2)CC1,196 °C
15,COc1ccc(S(N)(=O)=O)cc1C(=O)NCc1ccc(OCCN(C)C)cc1,122 to 123 °C
16,O=C(O)c1c(F)c(OC(F)F)c(F)c(F)c1[N+](=O)[O-],77 to 80 °C
17,C1=C2NCCN2C(c2ccccc2)c2ccccc2C1 (stereo not drawn),200 to 201 °C

# Continued, values first:
row,melting point,Compound
1,149 °C,CC(C)(C)OC(=O)N1C[C@@H]2CC1CN2c1cncc(Br)c1
2,158 °C,CCOC(=O)[C@H](Cn1cc(C)c(SC#N)nc1=O)NS(=O)(=O)N(C)C
3,151 to 152 °C,CN(C)CC1CNc2cc(O)ccc2C1 (stereo not drawn)
4,199 to 201 °C,O=C(O)Cc1ccc(NC(=O)CCc2cnn(-c3ccccc3)c2-c2ccccc2)cc1
5,122 to 123 °C,CCOCC(=NO)C(C)(C)NCCCNC(C)(C)C(Cn1ccnc1[N+](=O)[O-])=NO
6,260 to 265 °C,O=c1c2ccccc2sc2c(O)ccc(Cl)c12
7,56 to 58 °C,CC(=O)OCC(C)(C)C(Cl)CC(Cl)(Cl)Cl (stereo not drawn)
8,164 to 166 °C,COc1cc2c(cc1OC)CN(CCCc1ccc(NC(=O)c3nc4cc(C)c(C)cc4nc3OC)cc1)CC2
9,139 to 141 °C,CCCCCn1cc2cc(CCCC)oc2nc1=O
10,130 to 133 °C,O=C1NC(=O)C(S(=O)(=O)c2ccccc2)S1 (stereo not drawn)
11,166 to 169 °C,CC1=C(CCN(O)C(N)=O)/C(=C/c2ccc(S(C)=O)cc2)c2ccccc21 (stereo not drawn)
12,110 to 112 °C,Cc1cc(OCc2ccc(-c3ccccc3-c3nnn(C(c4ccccc4)(c4ccccc4)c4ccccc4)n3)cc2)c(CCl)c(C)n1
13,118 to 119 °C,COc1ccc(C2=NN(C3CCN(S(=O)(=O)c4ccccc4OC(F)(F)F)CC3)C(=O)CC2)cc1OC
14,145 to 148 °C,CCN(C)c1nc(-c2cc(OC)cc(OC)c2)nc2sc(C#N)c(C)c12
15,120 to 123 °C,CCC(C)(C)c1ccc(OCCCNC(=O)c2cc(N)c3ccccc3c2O)c(C(C)(C)CC)c1
16,96 to 100 °C,O=C(O)CCc1cc2cc(Cl)ccc2n1S(=O)(=O)c1ccc2ncsc2c1
17,155 to 157 °C,O=C(O)CCC(=NO)c1ccc(-c2cccc(F)c2)cc1
18,167 to 168 °C,Oc1ccc2nc(Cc3ccc(Cl)cc3)oc2c1
19,195 to 196 °C,Cc1nn(-c2ccccn2)c2c1C(=NO)CC(C)(C)C2Br (stereo not drawn)
20,160 to 162 °C,COc1c(Cl)ccc(-c2cc(N)c(Cl)c(C(=O)NOCc3ccoc3)n2)c1F
21,118 to 122 °C,N#CC1(c2cccs2)CC1

# Reference: a melting point compilation (Tetko et al.; mined from patent text by program, amines drawn as free bases though some values may be those of a salt)
